Test results taken from US10131652B2, “Pyrimidinyloxy benzene derivatives as herbicides” (E. I. DU PONT DE NEMOURS AND COMPANY, priority 2014, dated 2018).
Where two headings read alike, the source gives them in different places.

Key:
Assay in all cases: Test F pre-/postemergence plant response
Format in all cases: in vivo
[1] = system: palmer pigweed (Amaranthus palmeri); settings: Amaranthus palmeri, scale 0 to 100, read-out: Plant response rating, Pigweed, Palmer
Method in brief: (§1)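 Seeds were sown in silt loam and sprayed preemergence; in parallel, plants at 2–18 cm (1- to 4-leaf) received postemergence sprays. Test chemicals were in a non-phytotoxic solvent with surfactant. After 14–21 days in the greenhouse, injury was rated visually against controls on a 0–100 scale (100 = complete control).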

[2] = system: yellow nutsedge (Cyperus esculentus); settings: Cyperus, pre-emergence, scale 0 to 100, read-out: Plant response rating, Nutsedge, Yellow
Method in brief: as §1

[3] = system: ragweed (common ragweed, Ambrosia elatior); settings: Ambrosia artemisiifolia, scale 0 to 100, read-out: Plant response rating, Ragweed
Method in brief: as §1

corn (Zea mays) = settings: Zea mays, scale 0 to 100
Method in brief: as §1

[4] = system: waterhemp (common waterhemp, Amaranthus rudis); settings: Amaranthus tuberculatus, scale 0 to 100, read-out: Plant response rating, Waterhemp
Method in brief: as §1

soybean (Glycine max) = settings: Glycine max, scale 0 to 100, read-out: Plant response rating, Soybean
Method in brief: as §1

[5] = system: barnyardgrass (Echinochloa crus-galli); settings: Echinochloa crus-galli, scale 0 to 100, read-out: Plant response rating, Barnyardgrass
Method in brief: as §1

[6] = system: velvetleaf (Abutilon theophrasti); settings: Abutilon theophrasti, pre-emergence, scale 0 to 100, read-out: Plant response rating, Velvetleaf
Method in brief: as §1

[7] = system: goosegrass (Eleusine indica); settings: Eleusine indica, pre-emergence, scale 0 to 100, read-out: Plant response rating, Goosegrass
Method in brief: as §1

[8] = system: surinam grass (Brachiaria decumbens); settings: Urochloa decumbens, pre-emergence, scale 0 to 100, read-out: Plant response rating, Surinam Grass
Method in brief: as §1

[9] = system: Italian ryegrass (Lolium multiflorum); settings: Lolium multiflorum, scale 0 to 100, read-out: Plant response rating, Ryegrass, Italian; for pest or weed control at 16 g/ha: 16 g ai/ha; for pest or weed control at 31 g/ha: 31 g ai/ha; for pest or weed control at 125 g/ha: 125 g ai/ha
Method in brief: as §1

[10] = system: arrowleaf sida (Sida rhombifolia); settings: Sida rhombifolia, scale 0 to 100, read-out: Plant response rating, Arrowleaf Sida
Method in brief: as §1

[11] = system: dayflower (Virginia (VA) dayflower, Commelina virginica); settings: Commelina virginica, scale 0 to 100, read-out: Plant response rating, Dayflower, VA
Method in brief: as §1

[12] = system: sandbur (southern sandbur, Cenchrus echinatus); settings: Cenchrus echinatus, scale 0 to 100, read-out: Plant response rating, Sandbur
Method in brief: as §1

[13] = system: lambsquarters (Chenopodium album); settings: Chenopodium album, pre-emergence, Preemergence, scale 0 to 100, read-out: Plant response rating, Lambsquarters
Method in brief: as §1

[14] = system: hairy beggarticks (Bidens pilosa); settings: Bidens pilosa, scale 0 to 100, read-out: Plant response rating, Beggarticks
Method in brief: as §1

[15] = post-emergence, 16 g ai/ha Postemergence
[16] = post-emergence, 31 g ai/ha Postemergence
[17] = post-emergence, 62 g ai/ha Postemergence
[18] = post-emergence, 125 g ai/ha Postemergence
[19] = pre-emergence, 16 g ai/ha Preemergence
[20] = pre-emergence, 31 g ai/ha Preemergence
[21] = pre-emergence, 125 g ai/ha Preemergence
[22] = pre-emergence, 62 g ai/ha Preemergence

Fc1cccc(Oc2ncc(Cl)cn2)c1-c1cc(C(F)F)no1 [Compound 144, 5-chloro-2-[2-[3-(difluoromethyl)-5-isoxazolyl]-3-fluorophenoxy]pyrimidine]
pest or weed control at 16 g/ha [1, 15]: 90%
pest or weed control at 31 g/ha [1, 16]: 100%
pest or weed control at 62 g/ha [1, 17]: 100%
pest or weed control at 125 g/ha [1, 18]: 100%
pest or weed control at 16 g/ha [1, 19]: 100%
pest or weed control at 31 g/ha [1, 20]: 100%
pest or weed control at 125 g/ha [1, 21]: 100%
pest or weed control at 62 g/ha ([1]; pre-emergence, Preemergence): 100%
pest or weed control at 16 g/ha ([2]; 16 g ai/ha Preemergence): 0%
pest or weed control at 31 g/ha ([2]; 31 g ai/ha Preemergence): 0%
pest or weed control at 125 g/ha ([2]; 125 g ai/ha Preemergence): 0%
pest or weed control at 62 g/ha ([2]; Preemergence): 0%
pest or weed control at 16 g/ha [3, 15]: 50%
pest or weed control at 31 g/ha [3, 16]: 50%
pest or weed control at 62 g/ha [3, 17]: 85%
pest or weed control at 125 g/ha [3, 18]: 90%
pest or weed control at 16 g/ha [3, 19]: 0%
pest or weed control at 31 g/ha [3, 20]: 0%
pest or weed control at 125 g/ha [3, 21]: 85%
pest or weed control at 62 g/ha ([3]; pre-emergence, Preemergence): 95%
Corn plant response rating (crop injury, 0 = no effect, 100 = complete kill) at 16 g/ha (corn (Zea mays); [15]): 10%
Corn plant response rating (crop injury, 0 = no effect, 100 = complete kill) at 31 g/ha (corn (Zea mays); [16]): 5%
Corn plant response rating (crop injury, 0 = no effect, 100 = complete kill) at 62 g/ha (corn (Zea mays); [17]): 10%
Corn plant response rating (crop injury, 0 = no effect, 100 = complete kill) at 125 g/ha (corn (Zea mays); [18]): 10%
Corn plant response rating (crop injury, 0 = no effect, 100 = complete kill) at 16 g/ha (corn (Zea mays); [19]): 0%
Corn plant response rating (crop injury, 0 = no effect, 100 = complete kill) at 31 g/ha (corn (Zea mays); [20]): 0%
Corn plant response rating (crop injury, 0 = no effect, 100 = complete kill) at 62 g/ha (corn (Zea mays); [22]): 40%
Corn plant response rating (crop injury, 0 = no effect, 100 = complete kill) at 125 g/ha (corn (Zea mays); [21]): 35%
pest or weed control at 16 g/ha [4, 15]: 100%
pest or weed control at 31 g/ha [4, 16]: 100%
pest or weed control at 62 g/ha [4, 17]: 100%
pest or weed control at 125 g/ha [4, 18]: 100%
pest or weed control at 16 g/ha [4, 19]: 98%
pest or weed control at 31 g/ha [4, 20]: 100%
pest or weed control at 125 g/ha [4, 21]: 100%
pest or weed control at 62 g/ha ([4]; pre-emergence, Preemergence): 100%
plant injury at 16 g/ha (soybean (Glycine max); [15]): 65%
plant injury at 31 g/ha (soybean (Glycine max); [16]): 95%
plant injury at 62 g/ha (soybean (Glycine max); [17]): 98%
plant injury at 125 g/ha (soybean (Glycine max); [18]): 95%
plant injury at 31 g/ha (soybean (Glycine max); [20]): 10%
plant injury at 125 g/ha (soybean (Glycine max); [21]): 75%
plant injury at 62 g/ha (soybean (Glycine max); pre-emergence, Preemergence): 40%
pest or weed control at 16 g/ha [5, 15]: 10%
pest or weed control at 31 g/ha [5, 16]: 30%
pest or weed control at 62 g/ha [5, 17]: 50%
pest or weed control at 125 g/ha [5, 18]: 75%
pest or weed control at 16 g/ha [5, 19]: 0%
pest or weed control at 31 g/ha [5, 20]: 20%
pest or weed control at 62 g/ha [5, 22]: 70%
pest or weed control at 125 g/ha [5, 21]: 100%
pest or weed control at 16 g/ha ([6]; 16 g ai/ha Preemergence): 80%
pest or weed control at 31 g/ha ([6]; 31 g ai/ha Preemergence): 100%
pest or weed control at 125 g/ha ([6]; 125 g ai/ha Preemergence): 100%
pest or weed control at 62 g/ha ([6]; Preemergence): 100%
pest or weed control at 16 g/ha ([7]; 16 g ai/ha Preemergence): 75%
pest or weed control at 31 g/ha ([7]; 31 g ai/ha Preemergence): 60%
pest or weed control at 125 g/ha ([7]; 125 g ai/ha Preemergence): 100%
pest or weed control at 62 g/ha ([7]; Preemergence): 95%
pest or weed control at 16 g/ha ([8]; 16 g ai/ha Preemergence): 0%
pest or weed control at 31 g/ha ([8]; 31 g ai/ha Preemergence): 75%
pest or weed control at 125 g/ha ([8]; 125 g ai/ha Preemergence): 80%
pest or weed control at 62 g/ha ([8]; Preemergence): 75%
pest or weed control at 16 g/ha ([9]; post-emergence, Postemergence): 10%
pest or weed control at 31 g/ha ([9]; post-emergence, Postemergence): 20%
pest or weed control at 62 g/ha ([9]; post-emergence, 62 g ai/ha, Postemergence): 20%
pest or weed control at 125 g/ha ([9]; post-emergence, Postemergence): 40%
pest or weed control at 16 g/ha ([9]; pre-emergence, Preemergence): 0%
pest or weed control at 31 g/ha ([9]; pre-emergence, Preemergence): 0%
pest or weed control at 125 g/ha ([9]; pre-emergence, Preemergence): 100%
pest or weed control at 62 g/ha ([9]; pre-emergence, Preemergence): 40%
pest or weed control at 16 g/ha [10, 15]: 100%
pest or weed control at 31 g/ha [10, 16]: 100%
pest or weed control at 62 g/ha [10, 17]: 100%
pest or weed control at 125 g/ha [10, 18]: 100%
pest or weed control at 16 g/ha [10, 19]: 95%
pest or weed control at 31 g/ha [10, 20]: 100%
pest or weed control at 62 g/ha [10, 22]: 100%
pest or weed control at 125 g/ha [10, 21]: 100%
pest or weed control at 16 g/ha [11, 15]: 50%
pest or weed control at 31 g/ha [11, 16]: 50%
pest or weed control at 62 g/ha [11, 17]: 60%
pest or weed control at 125 g/ha [11, 18]: 85%
pest or weed control at 16 g/ha [11, 19]: 0%
pest or weed control at 31 g/ha [11, 20]: 30%
pest or weed control at 62 g/ha [11, 22]: 85%
pest or weed control at 125 g/ha [11, 21]: 95%
pest or weed control at 16 g/ha [12, 15]: 10%
pest or weed control at 31 g/ha [12, 16]: 15%
pest or weed control at 62 g/ha [12, 17]: 20%
pest or weed control at 125 g/ha [12, 18]: 20%
pest or weed control at 16 g/ha [12, 19]: 0%
pest or weed control at 31 g/ha [12, 20]: 10%
pest or weed control at 125 g/ha [12, 21]: 95%
pest or weed control at 62 g/ha ([12]; pre-emergence, Preemergence): 50%
pest or weed control at 16 g/ha ([13]; 16 g ai/ha): 100%
pest or weed control at 31 g/ha ([13]; 31 g ai/ha): 100%
pest or weed control at 125 g/ha ([13]; 125 g ai/ha): 100%
pest or weed control at 62 g/ha [13]: 100%
pest or weed control at 16 g/ha [14, 15]: 70%
pest or weed control at 31 g/ha [14, 16]: 60%
pest or weed control at 62 g/ha [14, 17]: 70%
pest or weed control at 125 g/ha [14, 18]: 75%
pest or weed control at 16 g/ha [14, 19]: 0%
pest or weed control at 31 g/ha [14, 20]: 0%
pest or weed control at 62 g/ha [14, 22]: 0%
pest or weed control at 125 g/ha [14, 21]: 0%
